Data on 13 compounds can be found in publication PMC5442318, “Hundreds of dual-stage antimalarial molecules discovered by a functional gametocyte screen” (Nature Communications, 2017).

A word on the inhibition: it is the change of the read-out against control, counted positive when it falls.

Where two headings read alike, the source gives them in different places.

Data set [1] concerns P. falciparum stages IV–V gametocytes. Put plainly: Gametocytocidal ATP-depletion assay (gametocyte ATP bioluminescence). Type of data set: cell-based, Plasmodium falciparum. In a few lines:
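Purified stage IV–V gametocytes (12,500/well) incubated with compound for 48 h at 37 °C under 3% O2/5% CO2. ATP measured by BacTiter-Glo luminescence as a viability surrogate; hits tested at 2 μM single concentration.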

The next data set concerns HepG2 cells. Put plainly: HepG2 cytotoxicity assay. Type of data set: cell-based. Put shortly:
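After compound incubation, plates and CellTiter-Glo reagent were brought to room temperature for 30 min. The reagent was then added, and luminescence was read after a 10 min room-temperature stabilization.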

Data set [2] deals with P. falciparum stage V female gametocytes. Put plainly: P. falciparum female gametocyte activation assay (Pf FGAA), 24 h or 48 h preincubation, Pfs25 expression readout. The note with it: mean, read-out: Gametocytes mean Pf FGAA IC50. Type of data set: cell-based, Plasmodium falciparum NF54. Put shortly:
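Purified stage V gametocytes from P. falciparum NF54 gametocyte cultures were exposed to compounds for 24 h or 48 h at 37 °C under 3% O2/5% CO2, then activated by temperature drop plus xanthurenic acid. Activated females were stained with Cy3-anti-Pfs25 (0.5 μg ml^−1) for 24 h at 26 °C and counted by high-content imaging; pIC50 by nonlinear regression.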

For data set [3], the system named is P. falciparum asexual blood stages. The note with it: read-out: Pf Asexual blood stages XC50, cited from earlier work.
The mark [4] stands for this setting: TCAMS data, ref 1 (Gamo et al., 2010).
[5] abbreviates: TCAMS asexual blood stage data, ref 1 (Gamo, F. J. et al., Nature 465, 305-310, 2010).
Setting [6] is: P. falciparum female gametocytes.

For the compound `CC(C)(C)c1ccc(-c2nc3c(ccc4nc(N)nc(N)c43)[nH]2)cc1.Cl` [TCMDC-137984], the “Gametocytes mean ATP inhibition at 2µM (%)” value in data set [1] is reported as 79.78%. For the same compound, the “HepG2 cells mean TOX50” value in the data set with HepG2 cells (mean) is reported as 2.12 µM. For the same compound, the IC50 is 0.26 µM in data set [2] and 0.16 µM in data set [3] (setting [4]).

For the compound `Nc1nc(N)c2cc(NC(=O)c3ccc(Cl)c(Cl)c3)ccc2n1` [TCMDC-141982], the “Gametocytes mean ATP inhibition at 2µM” value in data set [1] is reported as 1.96%. For the same compound, the “HepG2 cells mean TOX50” value in the data set on HepG2 cells (mean; HepG2 cells) was 2.14 µM. The IC50 in data set [2] (P. falciparum female gametocyte activation assay) was 1.59 µM; in data set [3] (setting [5]) it was 0.15 µM.

In the case of `CC(C)Cn1cc(C2CCN(CCN3CCC(CNC(=O)c4ccc(-c5ccc(C#N)cc5)cc4)CC3)CC2)c2ccccc21` [TCMDC-138849], the “Gametocytes mean ATP inhibition at 2µM (%)” value in data set [1] is listed as 8.40%. Also, the “HepG2 cells mean TOX50” value in the data set on HepG2 cells (mean) is given as 4.79 µM. For the same compound, the IC50 is 1.03 µM in data set [2] and 0.79 µM in data set [3] (setting [4]).

As for `COc1cccc(OC)c1CN1CCC(N(C)CCCCCCCCCN2CCC(OC(=O)Nc3ccccc3-c3ccccc3)CC2)CC1` [TCMDC-134690], the “Gametocytes mean ATP inhibition at 2µM” value in data set [1] is recorded as 15.06%. Moreover, in the data set with HepG2 cells (HepG2 cells; mean), the “HepG2 cells mean TOX50” value was 1.91 µM. For the same compound, the IC50 was 1.31 µM in data set [2] (setting [6]) and 0.32 µM in data set [3] (setting [5]).

On to `CC[C@H]1CN2CCc3cc(OC)c(OC)cc3[C@@H]2C[C@@H]1C[C@H]1NCCc2cc(OC)c(OC)cc21` [TCMDC-125531], for which, in data set [1] (Plasmodium falciparum, mean), the inhibition at 2 µM was 56%. Moreover, the “HepG2 cells mean TOX50” value in the data set with HepG2 cells (HepG2 cells; mean) stood at 9.77 µM. The IC50 is 2.73 µM in data set [2] (Plasmodium falciparum, P. falciparum female gametocytes) and 0.21 µM in data set [3] (setting [5]).

Regarding `COc1cc2nc(NCCCN3CCCCC3)nc(NCc3ccccc3)c2cc1OC` [TCMDC-132012], the “Gametocytes mean ATP inhibition at 2µM” value in data set [1] is on record as 19.39%. Besides, in the data set with HepG2 cells (HepG2 cells; mean), the “HepG2 cells mean TOX50” value is 6.84 µM. The IC50 in data set [2] (setting [6]) is 0.9 µM; in data set [3] (setting [5]), 1 µM.

Take `Cc1c(Cl)cccc1N=C(S)NN=Cc1ccccn1` [TCMDC-125487]: the “Gametocytes mean ATP inhibition at 2µM” value in data set [1] is 74.71%. For the same compound, the “HepG2 cells mean TOX50” value with HepG2 cells (HepG2 cells; mean) is greater than 100 µM. Further, the IC50 in data set [2] (setting [6]) is 0.028 µM; in data set [3] (setting [5]) it was 0.6 µM.

As to `Nc1cc2c(C3CCN(CC4CCN(C(=O)/C=C/c5ccc(Cl)c(Cl)c5)CC4)CC3)c[nH]c2cn1` [TCMDC-140133], the “Gametocytes mean ATP inhibition at 2µM (%)” value in data set [1] is listed as -6.84%. The “HepG2 cells mean TOX50” value in the data set on HepG2 cells (mean) is reported as 6.24 µM. In addition, the IC50 in data set [2] is 1.97 µM; in data set [3] (setting [4]), 0.98 µM.

For the compound `COc1cccc(OC)c1CN1CCC(N(C)CCCCCCCCN2CCC(OC(=O)Nc3ccccc3-c3ccccc3)CC2)CC1` [TCMDC-134684], in data set [1], the “Gametocytes mean ATP inhibition at 2µM” value amounted to 22.14%. Further, the “HepG2 cells mean TOX50” value in the data set with HepG2 cells (HepG2 cells; mean) is recorded as 1.93 µM. In addition, the IC50 in data set [2] (setting [6]) was 2.26 µM; in data set [3] (setting [5]) it was 0.46 µM.

For `CN1CCCC(CN2CCN(Cc3cccc(-c4ccc(-c5nc6cc(C(F)(F)F)ccc6[nH]5)cc4)c3)CC2)C1.O=C(O)C(F)(F)F` (stereo not shown) [TCMDC-133882], the “Gametocytes mean ATP inhibition at 2µM” value in data set [1] is reported as 1.53%. The “HepG2 cells mean TOX50” value with HepG2 cells (HepG2 cells; mean) worked out at 4.07 µM. Further, the IC50 is 1.3 µM in data set [2] (setting [6]) and 0.15 µM in data set [3] (setting [5]).

Turning to `COc1cc(-c2cc(-c3ccc(S(C)(=O)=O)cc3)cnc2N)ccc1O` [TCMDC-133343], the “Gametocytes mean ATP inhibition at 2µM” value in data set [1] is 57.72%. Also, the “HepG2 cells mean TOX50” value with HepG2 cells (HepG2 cells; mean) was 41.69 µM. Further, the IC50 in data set [2] (setting [6]) was 0.39 µM; in data set [3] (setting [5]), 0.1 µM.

With `Cc1cc(Nc2ncc(C#N)c(Nc3ccccc3C(N)=O)n2)ccc1N1CCN(C)CC1.Cl` [TCMDC-134115], the “Gametocytes mean ATP inhibition at 2µM” value in data set [1] worked out at 20.18%. Moreover, the “HepG2 cells mean TOX50” value with HepG2 cells (HepG2 cells; mean) turned out to be 0.40 µM. The values for the IC50 in data set [2] (setting [6]) and in data set [3] (setting [5]) were 1.67 µM and 0.009 µM, respectively.

Take `CC(C)C1=CC(=NOS(=O)(=O)c2ccccc2)C=C(C(C)C)C1=O` [TCMDC-124172]: the “Gametocytes mean ATP inhibition at 2µM” value in data set [1] was 65.50%. Also, the “HepG2 cells mean TOX50” value in the data set with HepG2 cells (HepG2 cells; mean) was determined as 21.70 µM. Moreover, the IC50 in data set [2] (setting [6]) was 0.88 µM; in data set [3] (setting [5]) it was 0.71 µM.
